Earlier results on six compounds are cited in patent US6531115B1, “Analgesic and refreshing herbal composition and a process for preparing the same” (Council of Scientific & Industrial Research, priority 2001, dated 2003).

The structures appear in SMILES notation.

One data set concerns artificial toothache. Conditions: rabbits having artificial toothache.
Consider `Oc1ccccc1` [Phenol], for which the “sedative effect on toothache” value is “strongest action”.
As to `CC12CCC(CC1)C(C)(C)O2` [eucalyptol], the “sedative effect on toothache” value was “weak”.
As for `CC12CCC(CC1=O)C2(C)C` (stereo not drawn) [camphor], the “sedative effect on toothache” value is on record as “no sedative effect”.
On to `CC1CCC(C(C)C)C(O)C1` (stereo not drawn) [menthol], for which the “sedative effect on toothache” value is “weak”.

Another data set relates to toothache. Conditions: in vivo.
Regarding `CCO` [alcohol], the pain-relieving activity result is given as “almost no effect”.
Regarding `Cc1ccc(C(C)C)c(O)c1` [Thymol], the pain-relieving activity result was “very weak”.
